5 compounds from ChEMBL document CHEMBL1201862, “PubChem BioAssay data set” (2004) can be followed below.

Active and inactive are the calls of the source. For most assays here, no stated cut-off is given here; in the data, actives have a measured EC50 and inactives only a lower limit.

Experiment [1] can be described thus: luciferase reporter signal suppression in cells – H4 neuroglioma cells, luminescence, dose response (AID 1990). In kind it is functional, cell-based. For orientation: A reporter such as luciferase makes a cellular process visible.
Experiment [2] is described as follows: Luminescence Cell-Based Dose Response HTS to Identify Inhibitors of 5'UTR Stem-Loop Driven Prion Protein mRNA Translation in H4 Neuroglioblastoma Cells. [Related pubchem assays: 1827 (Project Summary), 1813 (Primary HTS)]. In kind it is functional.
The nature of experiment [3]: alpha-synuclein stem-loop luciferase translation blockers – H4 neuroglioma cells, luminescence, confirmation (AID 1988). It is filed as functional, cell-based.
The target of experiment [4] is Induced myeloid leukemia cell differentiation protein Mcl-1 (Homo sapiens, UniProt Q07820). It is filed as functional.
Chain of Induced myeloid leukemia cell differentiation protein Mcl-1 (Q07820 whole entry): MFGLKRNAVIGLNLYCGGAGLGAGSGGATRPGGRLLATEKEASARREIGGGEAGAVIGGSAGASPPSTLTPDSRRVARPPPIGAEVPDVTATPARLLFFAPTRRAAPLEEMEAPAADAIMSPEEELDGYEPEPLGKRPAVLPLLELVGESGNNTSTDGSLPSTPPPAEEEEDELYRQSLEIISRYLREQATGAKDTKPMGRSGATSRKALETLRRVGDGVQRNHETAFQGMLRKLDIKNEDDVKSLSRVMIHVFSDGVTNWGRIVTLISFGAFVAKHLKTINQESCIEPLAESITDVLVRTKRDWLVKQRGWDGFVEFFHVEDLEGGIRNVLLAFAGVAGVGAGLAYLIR
Experiment [5] can be described thus: Trypanosoma cruzi growth suppression in host cells – NIH3T3 host cells, beta-gal luminescence, confirmation (AID 2044).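 Further: intracellular parasites grown in NIH/3T3 mouse fibroblasts as host cells; luminescent beta-galactosidase reporter signal from transgenic T. cruzi replicating inside host cells; inhibitors lower the luminescence signal.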 It is filed as functional, cell-based.
A short description of experiment [6]: NIH3T3 cell viability loss – ATP luminescence, mouse fibroblasts, counter-screen, dose response (AID 2010).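 Further: cells exposed to compound for about 90 hours before reading.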 It is filed as functional, cell-based.

A word on the EC50: it is the midpoint of the concentration-response curve. Take `CCOc1ccccc1/C=C(/NC(=O)c1ccccc1)C(=O)N(CC)CC`: the EC50 in experiment [1], in experiment [2] and in experiment [3] was > 120 µM (not active) throughout.
Broadly, the IC50 is the concentration that gives 50% inhibition. Turning to `COc1ccc(CCNC(=O)CN(c2ccc(OC)c(OC)c2)S(C)(=O)=O)cc1`, the concentration for half-maximal inhibition (IC50) in experiment [4] is listed as 26 µM (not active).
As for `O=C(CSc1nc2ccccc2s1)Nc1cc(S(=O)(=O)N2CCOCC2)ccc1O`, in experiment [4], the IC50 was 1.75 µM (active).
On to `[O-][n+]1c2c([n+]([O-])c3c1CCCC3)CCCC2`, for which the EC50 in experiment [1], in experiment [2] and in experiment [3] was > 120 µM (not active) throughout.
As for `O=[N+]([O-])c1nn(-c2ccccc2)[n+]([O-])c1NC1CCN(Cc2ccccc2)CC1`, the EC50 in experiment [1] was 14 µM (active); in experiment [2], > 120 µM (not active); in experiment [3], 10.9 µM (active); in experiment [5], 0.25 µM (active); in experiment [6], > 60 µM (not active).
